Assay [1] addresses Human M3 receptor (Homo sapiens, UniProt P20309). To be noted: read-out: M3 binding affinity.
Assay [2] concerns the target Human β2 adrenoceptor (Homo sapiens, UniProt P07550). The settings on record: read-out: B2 binding affinity.

The structures appear in SMILES notation.

Sequence of Human β2 adrenoceptor (P07550 whole entry): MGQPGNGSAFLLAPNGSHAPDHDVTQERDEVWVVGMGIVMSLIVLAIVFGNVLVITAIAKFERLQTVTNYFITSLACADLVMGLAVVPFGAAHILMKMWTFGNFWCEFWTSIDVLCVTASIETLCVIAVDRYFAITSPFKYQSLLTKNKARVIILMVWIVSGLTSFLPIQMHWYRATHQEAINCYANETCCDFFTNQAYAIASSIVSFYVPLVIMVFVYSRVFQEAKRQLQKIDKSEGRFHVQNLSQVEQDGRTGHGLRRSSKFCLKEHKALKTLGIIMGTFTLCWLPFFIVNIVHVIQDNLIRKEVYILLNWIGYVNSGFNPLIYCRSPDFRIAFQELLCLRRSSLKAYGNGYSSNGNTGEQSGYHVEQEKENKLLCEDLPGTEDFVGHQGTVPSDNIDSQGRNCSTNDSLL
Sequence of Human M3 receptor (P20309 whole entry): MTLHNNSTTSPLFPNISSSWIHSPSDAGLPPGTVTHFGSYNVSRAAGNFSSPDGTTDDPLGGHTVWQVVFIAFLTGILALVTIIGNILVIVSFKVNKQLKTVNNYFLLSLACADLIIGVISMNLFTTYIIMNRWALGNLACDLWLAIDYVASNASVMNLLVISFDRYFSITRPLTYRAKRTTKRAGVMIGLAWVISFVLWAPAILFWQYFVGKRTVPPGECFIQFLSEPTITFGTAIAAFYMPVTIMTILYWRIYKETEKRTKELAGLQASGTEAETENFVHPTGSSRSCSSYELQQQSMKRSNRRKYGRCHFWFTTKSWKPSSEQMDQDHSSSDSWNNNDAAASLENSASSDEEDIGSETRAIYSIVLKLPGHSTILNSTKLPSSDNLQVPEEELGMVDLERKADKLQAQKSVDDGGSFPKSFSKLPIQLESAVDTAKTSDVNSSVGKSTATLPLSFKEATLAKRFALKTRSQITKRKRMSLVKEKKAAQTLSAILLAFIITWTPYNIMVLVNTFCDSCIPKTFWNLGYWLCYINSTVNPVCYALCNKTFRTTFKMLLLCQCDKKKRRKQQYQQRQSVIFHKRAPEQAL

As for `COc1cc(CNC[C@H](O)c2ccc(O)c3[nH]c(=O)ccc23)ccc1C(=O)N1CC(NC(=O)COc2cccc([C@](O)(C(=O)OCC3CCN(Cc4ccccc4)CC3)c3ccccc3)c2)C1` [Compound 82, (1-benzylpiperidin-4-yl)methyl (S)-2-hydroxy-2-(3-(2-((1-(4-((((R)-2-hydroxy-2-(8-hydroxy-2-oxo-1,2-dihydroquinolin-5-yl)ethyl)amino)methyl)-2-methoxybenzoyl)azetidin-3-yl)amino)-2-oxoethoxy)phenyl)-2-phenylacetate], the IC50 in assay [1] and in assay [2] was 0.3 to 3 nM in each case.

(Values after patent publication US9579314B2 (priority 2015, dated 2017).)
